Data on one substance can be found in patent US11274131B2, “IgM-mediated receptor clustering and cell modulation” (MAYO FOUNDATION FOR MEDICAL EDUCATION AND RESEARCH, priority 2007, dated 2022).

For one experiment, the system named is mouse DC. The experiment can be described thus: Cap formation / FRET on mouse DC. It is filed as cell-based. As to the method: DC of murine origin were stained with anti-Class II-FITC (MF/114.15.2), and either anti-CD80-PE (16.10A1)/CD86-PE (GL-1), or anti-CD11c-PE (N418). DC of human origin were stained with anti-Class II-FITC (LN3) and anti-CD80-PE (2D10.4)/CD86-PE (IT2.2). All incubations were carried out for 15 minutes at 37° C. The cells were subsequently stimulated with 10 μg/ml of control (sHIgM39) or B7-DC XAb, and were observed every 5 minutes using time lapse confocal imaging at 40.times magnification with a LSM510 Laser scanning confocal microscope having a 37° C. stage (Carl-Zeiss Inc, Oberkochen, Germany). Jurkat cells were pre stained with anti-human CD28-FITC (CD28.2) for 15 minutes, followed by addition of 10 μg/ml of MTAb control antibody sHIgM39, MTAb sHIgM22, or anti-K^b IgM (28-13-3), and were and analyzed in the same manner as the DC.
The flow cytometry approach for FRET was used as a way of quantifying molecular aggregation on the cell surface and was carried out as described previously (Block et al. (2001) J. Immunol. 167:821-826). Briefly, DC of murine origin were stained with anti-Class II APC (M5/114.15.2) and anti-CD80-PE (16.10A1)/CD86-PE(GL-1) for 15 minutes to visualize FRET between these molecules. Monitoring for FRET induced by interaction between TREM-2 and Class-II molecules was achieved by incubating the cells with the abovementioned anti-Class-II antibody and anti-TREM-2-PE (237920). DC of human origin were stained for 15 minutes with APC-anti class II (LN3) and anti-CD80-PE (2D10.4)/CD86-PE (IT2.2). In experiments involving blocking of B7-DC, both fluorophore labeled antibodies and purified anti-mouse B7-DC (TY-25) or purified anti-human B7-DC (MIH18) IgG monoclonal antibody was added at 10 μg/ml for 15 minutes. Jurkat cells were stained with anti-human Class I-PE (G46-2.6) or anti-human CD4 (RPA-T4) and anti-human CD28-APC (CD28.2) for 15 minutes. Cells were stimulated with control antibody or B7-DC XAb or purified anti-mouse class II IgM (25-9-3) (experiments involving DC) or sHIgM22 (experiments involving Jurkat cells) and aliquots from different groups were taken at different time points. After 15 minutes of incubation, the cells were washed and fixed in 2% paraformaldehyde prior to analysis by FACS using a FACSCALIBER™ (BD Biosciences, Franklin Lakes, N.J.). Data collected as log10 fluorescence were analyzed using CELLQUEST™ (BD Biosciences). The FRET signal was visualized in FL3 channel (650-670 nm LP).

Another experiment concerns human DC. Nature of the experiment: Calcium flux assay, human DC. It counts as cell-based. The protocol:
Changes in the levels of intracellular Ca^2+ were assessed in Indol-loaded cells by flow cytometry as described previously (Takahashi et al. (2005) J. Exp. Med. 201:647-657). Briefly, 5×10^6 DC/ml were incubated with 5 μM Indo-1 (Calbiochem) at 37° C. for 30 minutes. The cells were washed twice in serum free media and resuspended at 10^6/ml in PBS containing 0.5% BSA. The samples were analyzed by flow cytometry using a UV laser. Violet (390 nm) and blue (500 nm) fluorescence emissions were recorded. Baseline was recorded for two minutes. Antibody was added to the cell suspension (10 μg/ml of control antibody or B7-DC XAb) and the measurements were recorded for 8 additional minutes. In blocking experiments, mouse or human DC were pre-incubated with 10 μg/ml of purified anti-mouse B7-DC antibody (TY-25) or purified anti-human B7-DC antibody (MIH18) for 15 minutes, followed by collection of data for calcium flux as described above. Ionomycin added at 1 μg/ml after 2 minutes served as a positive control. The blue to violet ratio was calculated using FlowJo software (Tristar, Ashland, Oreg.).

Consider “B7-DC XAb: human monoclonal IgM from a Waldenstrom's macroglobulinemia patient that binds and cross-links B7-DC on DC”, for which, in the experiment on mouse DC (DC from CD80/CD86 double knock out and MHC class II knock out mice), the “co-capping of CD80 and CD86 or CD11c with class II molecules” value is “still occurred”. For the same substance, in the experiment on mouse DC (mouse DC), the “reorganization of tagged class II, CD80, CD86 into a capped cluster” value was “reorganized into a distinctly capped cluster”. Also, in the experiment with mouse DC (mouse DC, within ten minutes), the “FRET among class II, CD80 and CD86” value is “strong FRET signal”. Also, the “time to association of TREM-2 with class II molecules by FRET” value with mouse DC (mouse DC, increased by 15 minutes) was at most 5 min. The intracellular calcium signal result in the experiment with human DC is given as “prolonged calcium signals”.
